Measurements taken from patent US20210177889A1, “GASEOUS PHARMACEUTICAL COMPOSITION FOR HYPERTENSION THERAPY” (KEIO UNIVERSITY, priority 2019, published 2021).

Key:
[1] = test system: autonomic nervous system activity; experiment: Spectral analysis of blood pressure variability (autonomic nervous system) in 5/6 nephrectomized rats; assay type: in vivo, Lewis rat
Description: (§1) Heart rate variability was analyzed using telemetry system software (Ponemah Ver. 6.3, Data Science International). Frequency domain analysis (sampling rate of 500 Hz; very low frequency (VLF) (0.05-0.25 Hz); low frequency (LF) (0.25-1.0 Hz); and high frequency (HF) (1.0-3.0 Hz)) was carried out using the arterial pressure waveform data of the first one minute of every five minutes (about 300 to 400 beats). In heart rate variability analysis, data recorded in the first 15 minutes was excluded, and effective data in the first one minute out of a block of every 5 minutes was used. LF and HF each reflected the sympathetic nerve component and the parasympathetic nerve component (Akselrod, S. et al. Power spectrum analysis of heart rate fluctuation: a quantitative probe of beat-to-beat cardiovascular control. Science 213, 220-222 (1981); Pagani, M. et al. Power spectral analysis of heart rate and arterial pressure variabilities as a marker of sympatho-vagal interaction in man and conscious dog. Circ. Res. 59, 178-193 (1986); and Montano, N. et al. Power spectrum analysis of heart rate variability to assess the changes in sympathovagal balance during graded orthostatic tilt. Circulation 90, 1826-1831 (1994)). LF/HF ratio and HF/(LF+HF) were each handled as indicators of sympathetic nerve activity and parasympathetic nerve activity (Heart rate variability: standards of measurement, physiological interpretation and clinical use. Task Force of the European Society of Cardiology and the North American Society of Pacing and Electrophysiology. Circulation 93, 1043-1065 (1996); and Pagani, M. et al. Relationship between spectral components of cardiovascular variabilities and direct measures of muscle sympathetic nerve activity in humans. Circulation 95, 1441-1448 (1997)).
(§2) H2 gas (1.3% H2+21% O2+77.7 N2) and control gas (21% O2+79% N2) were filled into gas cylinders in advance at a factory. The H2 group and the control group were allowed to inhale the H2 gas and the control gas that were mixed in advance. […]

autonomic nerve function = experiment: Autonomic nerve function by frequency analysis in spontaneous hypertension rats; assay type: in vivo, rat (SHR/Izumo); conditions: SHR
Description: as §1, §2

[2] = baseline (day 0) to 4 weeks after starting H2 inhalation, vs control 5/6 nephrectomy group

For `[2H][2H]` [H2 gas, Molecular hydrogen (H2)], the “decrease in HF power (normalised units), change from baseline” value [1, 2] was “significantly suppressed”, the “increase in LF power (normalised units), change from baseline” value [1, 2] was “significantly suppressed” and the “increase in LF power and decrease in HF power, compared as continuous variables” value ([1]; over a 4-week time course, tendency to be suppressed) was “not significant”. The “paraSNA (HF/LF+HF) ratio” value (autonomic nerve function; Week two compared to Week 1) was “increases”, the “influence on the autonomic nerve function after the end of inhalation” value (autonomic nerve function; after the first week after the end of inhalation) was “disappeared” and the “SNA (LF/HF)” value (autonomic nerve function; during inhalation of H2) was “decreases”.
